“Also recorded” adds a separate entry of the source.

The subject of one assay is Tsc1+/− mice. The assay can be described thus: In vivo intracortical EEG recordings of spontaneous seizures in Tsc1+/− mice (mouse model of Tuberous Sclerosis). The note with it: i.p. injection. On the procedure:
This study followed the Institut National de la Santé et de la Recherche Médicale guidelines for animal care. All experiments were performed on postnatal days P9-P20 of inbred C57Bl6 strain of both sexes of Tsc1^mut/wt (Tsc1^+/−) mice issued from breeding of C57Bl6 Tsc1^wt females and Tsc1^mut/wt males Tsc1^mut/wt.
Surgery was performed under isoflurane anesthesia. In brief, the skull of the animal was cleaned of skin and periosteum. The skull was covered by glue and dental cement except for a 4-9 mm^2 window above the somatosensory cortex from one or two hemispheres. Two plastic bars were fixed to the nasal and occipital bones of the pups head by dental cement. After surgery, animals were warmed, and left for an hour for recovery from anesthesia. During recordings, the head was fixed to the frame of the stereotaxic apparatus by attached bars; animals were surrounded by a cotton nest and heated via a thermal pad (36.6° C.-37.7° C.). […]
Electroencephalography (EEG) recordings were performed in non-anesthetized head-restrained Tsc1^+/− and control Tsc1^wt mice. […] Recordings were analyzed off-line using Clampfit and MATLAB software. […] During EEG recordings animals were monitored visually to determine behavioral correlates of each electrographic epileptic discharge. […] Local field potentials were analyzed by the custom-written, MATLAB based programs. […]

Assay [1] has as its system L5 interneurons in cortical slices from Tsc1+/− mice. The assay can be described thus: Ex vivo whole-cell patch-clamp recordings in cortical slices from Tsc1+/− mice. Format: cell-based, mouse. As to the method:
Wild type and Tsc1^+/− mice (P14-P16) were anaesthetized with ether and killed by decapitation in agreement with the European Directive 86/609/EEC requirements. The brain was rapidly removed and placed in an oxygenated ice-cold saline buffer. Transverse 300 μm-thick coronal slices were cut using a vibratome (Leica VT1000S; Leica Microsystems Inc., Deerfield, Ill.) in ice-cold protecting solution oxygenated with 95% O2 and 5% of CO2. Prior to recording, slices were incubated in an artificial cerebrospinal fluid (ACSF) solution containing (in mM): 125 NaCl, 3.5 KCl, 1 CaCl2, 2 MgCl2, 1.25 NaH2PO4, 26 NaHCO3, and 10 glucose, equilibrated at pH 7.3 with 95% O2 and 5% CO2 at room temperature (22-25° C.) for at least 1 h to allow recovery.
Slices were transferred to the recording chamber and perfused with oxygenated recording ACSF at 3 ml/min. Neurons were visualized using infrared differential interference contrast (IR-DIC) microscopy. […] It was not compensated and was monitored during each experiment. […]
Wild type and Tsc1^+/− mice (P14-P16) were anaesthetized, their brains removed rapidly and placed in an oxygenated ice-cold saline buffer. […] The effects of AppCH2ppA administration were monitored post slice administration ex vivo. […]

The test system of assay [2] is CA1 pyramidal neurons in hippocampal slices. Put plainly: Ex vivo murine hippocampal slice model of epilepsy (picrotoxin, Mg2+-free). Format: cell-based, mouse. The note with it: epileptic conditions: picrotoxin 100 μM, Mg2+ free perfusion solution; dose response. As to the method:
Slices were prepared and used as described previously (Melnik S, Wright M, Tanner J A, Tsintsadze T, Tsintsadze V, Miller A D, Lozovaya N (2006) Diadenosine polyphosphate analog controls postsynaptic excitation in CA3-CA1 synapses via a nitric oxide-dependent mechanism. J Pharmacol Exp Ther 318 (2):579-588. doi:10.1124/jpet.105.097642).
Slices were prepared as described previously (Melnik S, Wright M, Tanner J A, Tsintsadze T, Tsintsadze V, Miller A D, Lozovaya N (2006) Diadenosine polyphosphate analog controls postsynaptic excitation in CA3-CA1 synapses via a nitric oxide-dependent mechanism. J Pharmacol Exp Ther 318 (2):579-588. doi:10.1124/jpet.105.097642). Addition of picrotoxin (100 μM) and removal of Mg^2+ in the perfusion solution induced spontaneous epileptiform events lasted for 5-10 s (FIG. 7). […] In the continued presence of picrotoxin and Mg^2+ free extracellular solution, bursting at this rate continued for at least 2 h. The effects of AppCH2ppA administration were monitored post slice administration ex vivo (FIGS. 8 and 9a).

In the case of `Nc1ncnc2c1ncn2[C@@H]1O[C@H](COP(=O)(O)OP(=O)(O)CP(=O)(O)OP(=O)(O)OC[C@H]2O[C@@H](n3cnc4c(N)ncnc43)C(O)C2O)C(O)C1O` (some centres unmarked) [AppCH2ppA], the “anti-epileptic effect (spontaneous seizure activity)” value in the assay with Tsc1+/− mice (30 μM in 200 μl (6 nmol; 300 nmol/kg or 0.25 mg/kg), Tsc1+/− mice) is recorded as “partial”; in the assay with Tsc1+/− mice (100 μM in 200 μl (20 nmol; 1000 nmol/kg or 0.84 mg/kg), Tsc1+/− mice P14-P16), “eliminates seizures virtually completely; also recorded: essentially complete anti-epileptic effect”. In addition, the “spontaneous glutamatergic activity from L5 interneurons” value in assay [1] (bath administration, 10 μM, Vh=−70 mV, cortical slices from Tsc1+/− mice) is listed as “desensitizes glutamatergic activity relative to control”. In addition, in assay [1] (ex vivo, cortical slices, P14-P16 mice), the “seizure like electrical impulses on individual cortical neurons” value was “inhibits seizure like electrical impulses”.

Take `Nc1ncnc2c1ncn2[C@@H]1O[C@H](COP(=O)(O)OP(=O)(O)NP(=O)(O)OP(=O)(O)OC[C@H]2O[C@@H](n3cnc4c(N)ncnc43)[C@H](O)[C@@H]2O)[C@@H](O)[C@H]1O` [AppNHppA]: the “antiepileptic effect on frequency of epileptiform discharges” value in assay [2] was “completely inactive”.

Values taken from patent US20160354402A1, “COMPOSITIONS” (GLOBALACORN LTD, priority 2013, published 2016).
